Results on 1 compound are retold here after ChEMBL document CHEMBL3785022, “Pharmacokinetics of cyclophosphamide and alkylating activity in man after intravenous and oral administration” (Br J Clin Pharmacol, 1979).

Data set [1] in a line: First order rate constant for slow elimination phase in iv dosed lymphoma patient (6 patients) by two-compartmental open model. The note with it: human, in vivo.
Data set [2] is described as follows: Apparent volume of distribution of central compartment in iv dosed lymphoma patient (6 patients) by two-compartmental open model. The note with it: human, in vivo.
A short description of data set [3]: Apparent volume of distribution during terminal log-linear elimination phase in iv dosed lymphoma patient (6 patients) by two-compartmental open model. The note with it: human, in vivo.
A short description of data set [4]: Elimination rate constant from central compartment in iv dosed lymphoma patient (6 patients) by two-compartmental open model. The conditions noted are these: human, in vivo.
Data set [5] is described as follows: Elimination rate constant in po dosed lymphoma patient (7 patients) by one compartment open model. The conditions noted are these: human, in vivo.
Data set [6] in a line: Half life in po dosed lymphoma patient (7 patients) by one compartment open model. The note with it: human, in vivo.
Data set [7] in a line: Clearance in po dosed lymphoma patient (7 patients) by one compartment open model. The conditions noted are these: human, in vivo.
The nature of data set [8]: Drug excretion in po dosed lymphoma patient (7 patients) assessed as unchanged parent compound in urine. The note with it: human.
Data set [9] in a line: Renal clearance in lymphoma patient (7 patients). The note with it: human, in vivo.
Data set [10] is described as follows: Extraction ratio in lymphoma patient (7 patients). The conditions noted are these: human, in vivo.
Data set [11] in a line: clinical. The note with it: human, plasma, iv, 11.3 mg/kg.
A short description of data set [12]: clinical. The note with it: human, in vivo, iv, 11.3 mg/kg.
Description: Elimination rate constant in lymphoma patient at 11.3 mg/kg, iv by one compartment open model
Data set [13] is described as follows: clinical. The conditions noted are these: human, in vivo, iv, 11.3 mg/kg. This is another data set of the same source.
Description: Elimination half life in lymphoma patient at 11.3 mg/kg, iv by one compartment open model
The nature of data set [14]: clinical. The note with it: human, in vivo, iv, 11.3 mg/kg. This is another data set of the same source.
Description: Volume of distribution in lymphoma patient at 11.3 mg/kg, iv by one compartment open model
Data set [15] in a line: clinical. The note with it: human, in vivo, iv, 11.3 mg/kg. The source holds these as a separate data set.
Description: Clearance in lymphoma patient at 11.3 mg/kg, iv by one compartment open model

By half-life is commonly meant the time in which the quantity being followed falls by half. Low readings indicate fast loss, high ones slow loss. One may read the CL/F as clearance divided by bioavailability, as obtained after extravascular dosing. In general, clearance refers to the rate of elimination divided by the concentration. A lower clearance goes with a low capacity for elimination. In the case of `O=P1(N(CCCl)CCCl)NCCCO1` (stereo not given) [CYCLOPHOSPHAMIDE ANHYDROUS], the k el is 2.53e-05 s⁻¹ in data set [1], 5.56e-05 s⁻¹ in data set [4], 6.03e-05 s⁻¹ in data set [5] and 3e-05 s⁻¹ in “clinical [12]”. The Vd in data set [2] came to 0.38 L/kg; in data set [3], 0.71 L/kg; in the data set “clinical [14]” it was 0.9 L/kg. Besides, the half-life is 3.93 h in data set [6] and 6.42 h in “clinical [13]”. The compound further gave an apparent clearance (CL/F) in data set [7] of 1.55 mL/min/kg. For the same compound, the dose excreted in [8] was 1.8%. This compound had a CL renal in data set [9] of 0.08 mL/min/kg. Besides, the hepatic extraction ratio in data set [10] worked out at 0.25. The compound further had a C0 in “clinical [11]” of 12500 ng/mL. This compound also gave a clearance in the data set “clinical [15]” of 1.62 mL/min/kg.
